# Square brackets hold non-standard residues; d marks the D form. Peptide text beside a SMILES is read from it. d(hArg(Et2)) = CCN=C(NCC)NCCCC[C@@H](N)C(=O)O; hArg(Et2) = CCN=C(NCC)NCCCC[C@H](N)C(=O)O; dPhe(4-Cl) = N[C@H](Cc1ccc(Cl)cc1)C(=O)O; d2Nal = N[C@H](Cc1ccc2ccccc2c1)C(=O)O; d3Pal = N[C@H](Cc1cccnc1)C(=O)O
# What was measured:
# [1] = tested on: Luteinizing hormone (LH) blood level; test: LH blood hormone level in patients on conventional GnRH antagonist protocol with Ganirelex/Cetrotide injectables (Example 1); assay type: in vivo, female patients
# Procedure: Five female patients were treated with a GnRH antagonist protocol requiring injections of medications.
# One patient, patient no. 1, was injected with 150 Units of FSH on days 3 to 12; half a syringe of 150 mcg/0.5 mL of ganirelix acetate on days 11 and 12; and 50 mg of clomiphene citrate on days 3 to 12; and 2.5 mg of letrozole on days 3 to 7. Luteinizing hormone (LH) blood level was 4.3 mIU/mL on day 10 and dropped to 2 mIU/mL on day 12.
# A second patient, patient no. 2, was injected with 75 Units of FSH on days 4 to 12 and 150 Units on day 13; half a syringe of 150 mcg/0.5 mL of ganirelix acetate on days 11 to 13; 50 mg of clomiphene citrate on days 10 to 12, and 2.5 mg of letrozole on days 3 to 7. Luteinizing hormone (LH) blood level was 12.0 mIU/mL on day 11 and dropped to 6.3 mIU/mL on day 13.
# Three patients, numbered 3 to 5, were injected with 75, 150 and 225 Units of FSH, respectively, on days 4 to 12 and one third a syringe of 150 mcg/0.5 mL of ganirelix acetate on days 11 to 13. Patient no. 3 received 50 mg of clomiphene citrate on days 4 to 12, and 2.5 mg of letrozole on days 4 to 8. Patient no. 4 received 100 mg of clomiphene citrate and 2.5 mg of letrozole on days 4 to 8, and 50 mg of clomiphene citrate on days 9 to 11. Patient no. 5 received no clomiphene citrate or letrozole. Luteinizing hormone (LH) blood level was 12.0, 18.0 and 14.6 mIU/mL, respectively, on day 10 and dropped to 4.9, 16.0 and 14.1 mIU/mL, respectively, on day 12.
# (§1) Table 2 below provides a comparison of the efficacy of conventional Ganirelex/Cetrotide injectables treatment for IVF in the five representative patients from Example 1 with the home controlled ovarian hyperstimulation method described herein in the five representative patients from Example 2.
# [2] = tested on: Luteinizing hormone (LH) blood level; test: LH blood hormone level in patients on home controlled ovarian hyperstimulation method with vaginal elagolix (Example 2); assay type: in vivo, female patients
# Procedure: On day 9 of the menstrual cycle, the patient is directed to orally take 50 to 150 mg, preferably 100 mg, (one, two, or three 50 mg oral tablets) of clomiphene citrate and to either insert vaginally or take orally, depending on the patient's preference, a gonadotropin-releasing hormone (GnRH) antagonist such as elagolix (marketed as ORILISSA®), instead of the expensive injections of ganirelix acetate (GANIRELEX®) or cetrorelix acetate (marketed as CETROTIDE®) used routinely in conventional practices. A dose of 25 mg (⅛^th of a pill) up to 200 mg of elagolix (1 full pill), preferably 25 mg, will be used, with the dose being the same whether inserted vaginally or taken orally. Elagolix is a GnRH antagonist that is conventionally used in the treatment of pain associated with endometriosis in women, not for the treatment of infertility. By blocking the GnRH receptor, elagolix suppresses LH release by the pituitary gland and thus prevents LH surge. Ultimately, elagolix suppresses gonadal steroid production, thereby reducing circulating levels of sex hormones such as progesterone, estradiol, and testosterone. Elagolix is generally an oral medication (oral tablet), however in the present method, elagolix is a tablet taken mainly as a vaginal suppository, but may be taken orally based on the patient's preference. Additionally, the lowest and most preferred dose of elagolix (25 mg) that is used is one-eighth of the daily dosage conventionally administered for the treatment of endometriosis (e.g., 200 mg to 400 mg daily). […] Alternative GnRH receptor antagonists that can be used instead of elagolix include linzagolix and relugolix.
# Five female patients were treated with the controlled ovarian hyperstimulation method described herein using the elagolix pill (vaginal route) instead of the conventional Ganirelex/Cetrotide injectables. On day 3 of the patient's menstrual cycle, the patient orally took 100 mg (two 50 mg oral tablets) of clomiphene citrate and 5 mg (two 2.5 mg oral tablets) of letrozole. The patient then took the same oral dosages of clomiphene citrate and letrozole daily on each of days 4-7 of the patient's menstrual cycle. On day 8 of the patient's menstrual cycle, the patient orally took only 100 mg (two 50 mg oral tablets) of clomiphene citrate, and stopped the letrozole. On day 9 of the menstrual cycle, the patient orally took 100 mg (two 50 mg oral tablets) of clomiphene citrate and inserted vaginally a 50 mg tablet of elagolix as a vaginal suppository. On day 10 of the menstrual cycle, the patient orally took only 100 mg (two 50 mg oral tablets) of clomiphene citrate. On day 11 of the menstrual cycle, the patient orally took 100 mg (two 50 mg oral tablets) of clomiphene citrate and inserted vaginally a 50 mg tablet of elagolix as a vaginal suppository. Also, on day 11, the patient took a home ovulation test in the morning (9:00 am) and in the evening (9:00 pm). For the patients whose ovulation tests were not positive, then on days 12 and 13, the patient took 2 doses of leuprorelin as a nasal spray (1:40 dilution in saline) as follows. On day 12, after taking a home ovulation test at 9:00 am, 2 puffs (sprays) of the nasal spray were self-administered by the patient per nostril. After 12 hours of waiting, at 9:00 pm the patient took a home urine ovulation test and then self-administered 2 more puffs (sprays) of the nasal spray per nostril. On day 13, the patient repeated the procedure of day 12. Luteinizing hormone (LH) blood level was 7.0 mIU/mL on day 11 and dropped to 1.0 mIU/mL on day 13.
# as §1
# [3] = Example 2 patient 4, 50 mg elagolix vaginal suppository on days 9 and 11
# [4] = Example 2 patient 5, 50 mg elagolix vaginal suppository on days 9 and 11
compound,measurement,setting,value
"CCN=C(NCC)NCCCC[C@H](NC(=O)[C@H](CC(C)C)NC(=O)[C@@H](CCCCNC(=NCC)NCC)NC(=O)[C@H](Cc1ccc(O)cc1)NC(=O)[C@H](CO)NC(=O)[C@@H](Cc1cccnc1)NC(=O)[C@@H](Cc1ccc(Cl)cc1)NC(=O)[C@@H](Cc1ccc2ccccc2c1)NC(C)=O)C(=O)N1CCC[C@H]1C(=O)N[C@H](C)C(N)=O [Ganirelex, ganirelix acetate] (Ac-[d2Nal][dPhe(4-Cl)][d3Pal]SY[d(hArg(Et2))]L[hArg(Et2)]P[dA]-NH2)",LH blood hormone level BEFORE medication intake,"[1]; Example 1 patient 1, day 10, half a syringe of 150 mcg/0.5 mL ganirelix acetate on days 11 and 12, FSH 150 Units days 3-12, clomiphene citrate 50 mg days 3-12, letrozole 2.5 mg days 3-7",4.3 mIU/mL
same,% Drop in blood LH hormone level,"[1]; Example 1 patient 1, day 10 to day 12",53.5%
same,% Drop in blood LH hormone level,"[1]; Example 1 patient 1, day 10 to day 12, listed as Conventional Ganielex/Cetrotide Injectables",53.5%
same,LH blood hormone level AFTER medication intake,"[1]; Example 1 patient 1, day 12, half a syringe ganirelix acetate on days 11 and 12",2 mIU/mL
same,LH blood hormone level AFTER medication intake,"[1]; Example 1 patient 1, day 12, half a syringe ganirelix acetate on days 11 and 12, listed as Conventional Ganielex/Cetrotide Injectables",2.0 mIU/mL
same,LH blood hormone level BEFORE medication intake,"[1]; Example 1 patient 2, day 11, half a syringe of 150 mcg/0.5 mL ganirelix acetate on days 11 to 13, FSH 75 Units days 4-12 and 150 Units day 13, clomiphene citrate 50 mg days 10-12, letrozole 2.5 mg days 3-7",12.0 mIU/mL
same,% Drop in blood LH hormone level,"[1]; Example 1 patient 2, day 11 to day 13",47.5%
same,% Drop in blood LH hormone level,"[1]; Example 1 patient 2, day 11 to day 13, listed as Conventional Ganielex/Cetrotide Injectables",47.5%
same,LH blood hormone level AFTER medication intake,"[1]; Example 1 patient 2, day 13, half a syringe ganirelix acetate on days 11 to 13",6.3 mIU/mL
same,LH blood hormone level BEFORE medication intake,"[1]; Example 1 patient 3, day 10, one third a syringe of 150 mcg/0.5 mL ganirelix acetate on days 11 to 13, FSH 75 Units days 4-12, clomiphene citrate 50 mg days 4-12, letrozole 2.5 mg days 4-8",12.0 mIU/mL
same,% Drop in blood LH hormone level,"[1]; Example 1 patient 3, day 10 to day 12",59.25%
same,% Drop in blood LH hormone level,"[1]; Example 1 patient 3, day 10 to day 12, listed as Conventional Ganielex/Cetrotide Injectables",59.2%
same,LH blood hormone level AFTER medication intake,"[1]; Example 1 patient 3, day 12, one third a syringe ganirelix acetate on days 11 to 13",4.9 mIU/mL
same,LH blood hormone level BEFORE medication intake,"[1]; Example 1 patient 4, day 10, one third a syringe of 150 mcg/0.5 mL ganirelix acetate on days 11 to 13, FSH 150 Units days 4-12, clomiphene citrate 100 mg and letrozole 2.5 mg days 4-8, clomiphene citrate 50 mg days 9-11",18.0 mIU/mL
same,% Drop in blood LH hormone level,"[1]; Example 1 patient 4, day 10 to day 12",11.1%
same,% Drop in blood LH hormone level,"[1]; Example 1 patient 4, day 10 to day 12, listed as Conventional Ganielex/Cetrotide Injectables",11.1%
same,LH blood hormone level AFTER medication intake,"[1]; Example 1 patient 4, day 12, one third a syringe ganirelix acetate on days 11 to 13",16.0 mIU/mL
same,LH blood hormone level BEFORE medication intake,"[1]; Example 1 patient 5, day 10, one third a syringe of 150 mcg/0.5 mL ganirelix acetate on days 11 to 13, FSH 225 Units days 4-12, no clomiphene citrate or letrozole",14.6 mIU/mL
same,% Drop in blood LH hormone level,"[1]; Example 1 patient 5, day 10 to day 12",3.4%
same,% Drop in blood LH hormone level,"[1]; Example 1 patient 5, day 10 to day 12, listed as Conventional Ganielex/Cetrotide Injectables",3.4%
same,LH blood hormone level AFTER medication intake,"[1]; Example 1 patient 5, day 12, one third a syringe ganirelix acetate on days 11 to 13",14.1 mIU/mL
COc1cccc(-c2c(C)n(Cc3c(F)cccc3C(F)(F)F)c(=O)n(C[C@H](NCCCC(=O)O)c3ccccc3)c2=O)c1F [elagolix],LH blood hormone level BEFORE medication intake,"[2]; Example 2 patient 1, day 11, 50 mg elagolix tablet as vaginal suppository on days 9 and 11, clomiphene citrate 100 mg days 3-11, letrozole 5 mg days 3-7",7.0 mIU/mL
same,LH blood hormone level AFTER medication intake,"[2]; Example 2 patient 1, day 13, 50 mg elagolix vaginal suppository on days 9 and 11",1.0 mIU/mL
same,LH blood hormone level AFTER medication intake,"[2]; Example 2 patient 2, 50 mg elagolix vaginal suppository on days 9 and 11",5.7 mIU/mL
same,LH blood hormone level AFTER medication intake,"[2]; Example 2 patient 3, 50 mg elagolix vaginal suppository on days 9 and 11",3.2 mIU/mL
same,LH blood hormone level AFTER medication intake,[2]; [3],1.7 mIU/mL
same,LH blood hormone level BEFORE medication intake,[2]; [3],8.2 mIU/mL
same,LH blood hormone level AFTER medication intake,[2]; [4],0.8 mIU/mL
same,LH blood hormone level BEFORE medication intake,[2]; [4],7 mIU/mL
same,GnRH antagonist effect in the patients,[2]; lower dose of elagolix taken as a vaginal suppository instead of orally,effective GnRH antagonist

# Reference: patent US10695589B1, “Method and kit for home controlled ovarian stimulation for in vitro fertilization” (priority 2019, dated 2020)
